The values that follow are results of earlier work, collected in patent US20110039787A1, “COMPOSITIONS, KITS AND METHODS FOR TREATING BENIGN PROSTATE HYPERPLASIA” (priority 2009, published 2011).

For the data set, the system named is BPH. The conditions noted are these: cited from earlier work.

For `CCOc1ccccc1OCCN[C@H](C)Cc1ccc(OC)c(S(N)(=O)=O)c1` [Tamsulosin], the “IPSS change (maximum of known medicinal treatments, FIG. 2)” value (AUA Guideline on the Management of BPH (2006), historical comparison) is “approximately −7.5”.
As for cetrorelix glucoronate, the “Maximum reduction in mean IPSS” value (preliminary study, European Urology 54 (2008) 170-180) was −5.4 to −5.9.
